Experimental data as given in US10590422B2, “Anticancer therapeutic intervention” (PHYZAT BIOPHARMACEUTICALS, LDA., priority 2017, dated 2020).

Columns and labels:
[1] = test system: LAT1; test: LAT1 activity: [^14C]-L-leucine uptake in fibrosarcoma HT-1080 cells after LAT1 gene silencing; type: cell-based, human; conditions: 5 nM siRNA, treatment 6 h, at 48 h, 0.4% Lipofectamine 2000, FIG. 8A
Procedure: (§1) Cells were plated in 24-well plates (Sarstedt, Germany) and grown until confluence was reached. On the day of the experiment, cell culture medium was aspirated and cells were preincubated for 15 min in Hanks' medium (NaCl 140 mM, KCl 5 mM, MgSO4.7H2O 0.8 mM, K2HPO4 0.33 mM, KH2PO4 0.44 mM, MgCl2.6H2O 1 mM, CaCl2) 0.025 mM, Tris-HCl 9.75 mM, pH 7.4). Uptake was initiated by addition of Hanks' medium with 0.25 μM [^14C]-L-leucine in the absence and in the presence of 3 mM unlabeled L-leucine. During preincubation and incubation cells were continuously shaken and maintained at 37° C. Uptake was terminated after 1 min by rapid removal of uptake solution by means of a vacuum pump connected to a Pasteur pipette, followed by a rapid wash with Hanks' medium. Subsequently, cells were solubilized in 0.1% vol/vol Triton X-100 (dissolved in 5 mM Tris-HCl, pH 7.4), and radioactivity was measured by liquid scintillation counting.
(§2) Cells were plated in 24-well (Sarstedt, Germany) or 6-well plates (Sarstedt, Germany) or 96-well plates with black walls clear bottom (BD Biosciences, USA) and incubated 24 h under normal growth conditions. siRNAs against LAT1 and transfection agent were diluted at desired concentrations and mixed according to transfection agent manufacturer's instructions. The mixture was incubated 20 min at RT for siRNA-complex formation, after which it was added to the cells and incubated at 37° C., 5% CO2. After the incubation period, serum and antibiotic was restored and cells were further incubated at normal conditions for the desired time points until evaluation of LAT1 activity or LAT1 expression (immunoblotting and RT-qPCR).

[2] = test system: LAT1 mRNA; test: LAT1 gene expression (RT-qPCR) after LAT1 gene silencing in human colon cancer HTC-116 cells; type: cell-based; conditions: treatment 6 h
Procedure: (§3) SK-HEP-1, T24, HT-1080 and HCT-116 cell lines were maintained in a humidified atmosphere of 5% CO2 at 37° C. SK-HEP-1 cells were grown in RPMI-1640 (Sigma, St. Louis, Mo.) supplemented with 20% fetal bovine serum (FBS) (Gibco, UK), 100 U/mL penicillin G, 0.25 μg/mL amphotericin B, 100 μg/mL streptomycin (Gibco, UK), 25 mM sodium bicarbonate (Merck, Germany) and 25 mM N-2-hydroxyethylpiperazine-N′-2-ethanosulfonic acid (HEPES) (Sigma, St. Louis, Mo.). T24 and HT-1080 cells were grown, respectively, in Dulbecco's Modified Eagle's Medium (DMEM)—high glucose (Sigma, St. Louis, Mo.) and DMEM—low glucose (Sigma, St. Louis, Mo.), supplemented with 10% FBS (Gibco, UK), 100 U/mL penicillin G, 0.25 μg/mL amphotericin B, 100 μg/mL streptomycin (Gibco, UK), 25 mM sodium bicarbonate (Merck, Germany) and 25 mM HEPES (Sigma, St. Louis, Mo.). HCT-116 cells were grown in McCoy's 5A (Sigma, St. Louis, Mo.) supplemented with 10% FBS (Gibco, UK), 100 U/mL penicillin G, 0.25 μg/mL amphotericin B, 100 μg/mL streptomycin (Gibco, UK), 25 mM sodium bicarbonate (Merck, Germany) and 25 mM HEPES (Sigma, St. Louis, Mo.). For all cell lines the medium was changed every 2 days, and cells reached confluence 3-4 days after initial seeding. For subculturing, cells were dissociated with 0.25% trypsin-ethylenediaminetetraacetic acid (EDTA) (Sigma, St. Louis, Mo.), split 1:15 or 1:20 and subcultured in a 21-cm^2 growth area (Sarstedt, Germany).
(§4) Total RNA was isolated and purified using the SV Total RNA Isolation System (Promega, USA) according to manufacturer's instructions. RNA quality and concentration were verified in the NanoDrop ND1000 Spectrophotometer (Thermo Scientific, USA), and RNA integrity and genomic DNA contamination were evaluated by agarose gel electrophoresis. Total RNA (1 μg) was converted into cDNA using the Maxima Scientific First Strand cDNA Synthesis Kit for RT-qPCR (Thermo Scientific, USA), according to instructions. The following protocol was used: 1st step, 10 min at 25° C.; 2nd step, 15 min at 50° C.; 3rd step, 5 min at 85° C. cDNA was used for qPCR analysis using Maxima SYBR Green qPCR Master Mix (Thermo Scientific, USA) in the StepOnePlus instrument (Applied Biosystems, USA). QuantiTect Primer Assay for LAT1 and ASCT2 and for the endogenous control gene GAPDH (Quiagen, Germany) were used. The qPCR reaction was performed in 96-well PCR plates (Sarstedt, Germany) as follows: one cycle of 10 min at 95° C., followed by 40 PCR cycles at 95° C. 15 s and 60° C. 60 s. […] No template controls were always evaluated for each target gene. Quantification cycle (Cq) values were generated automatically by the StepOnePlus 2.3 Software and the ratio of the target gene was expressed in comparison to the endogenous control gene GAPDH.
as §2

[3] = test system: human colon cancer HTC-116 cells; test: Cell proliferation assay (calcein-AM) in human colon cancer HTC-116 cells; type: cell-based; conditions: for cell proliferation / proliferation: treatment 6 h; for cell proliferation: 72 h exposure; for proliferation: at 72 h, 0.17% Lipofectamine 2000 or 0.1% Injectin, FIGS. 19B and 20B
Procedure: as §3
Cell proliferation was measured using calcein-AM (Thermo Fisher Scientific, USA). The membrane permeant calcein-AM, a nonfluorescent dye, is taken up and converted by intracellular esterases to membrane impermeant calcein, which emits green fluorescence. Cells were plated in 96-well plates with black walls clear bottom (BD Biosciences, USA) and incubated 24 h under normal growth conditions. Cells were incubated with test items at 37° C., 5% C02. After the incubation period, serum and antibiotic was restored and cells were further incubated at normal conditions during 72 h. After treatment with test substances or vehicle, cells were washed twice with Hanks' medium and loaded with 2 μM calcein-AM in Hanks' medium, at 37° C. for 30 min. Fluorescence was measured at 485 nm excitation and 530 nm emission wavelengths in a microplate spectrofluorometer (Gemini EM, Molecular Devices). Nine consecutive fluorescence measurements are performed per well, to allow fluorescence readings in the whole area of the well, which was then considered for the calculation of mean fluorescence per well. To determine minimum staining for calcein (calceinmin), eight wells were treated with ethanol 30 min before calcein-AM addition. The percent cell number is calculated as [(calceinsample)/(calceincontrol)]×100.

[4] = test system: ASCT2; test: ASCT2 activity: [^14C]-L-alanine uptake in SK-HEP-1 cells after ASCT2 gene silencing; type: cell-based, human; conditions: ASCT2 siRNA; general statement, conditions not given
Procedure: as §1, with “the experiment, Cell culture medium” for “the experiment, cell culture medium”, “Hanks' medium (ChCl 140 mM,” for “Hanks' medium (NaCl 140 mM,”, “initiated by the addition of” for “initiated by addition of”, “0.25 μM [^14C]-L-alanine in the” for “0.25 μM [^14C]-L-leucine in the”, “mM unlabeled L-alanin. During preincubation” for “mM unlabeled L-leucine. During preincubation”
as §2, with “ASCT2” for “LAT1”

[5] = test system: ASCT2 mRNA; test: ASCT2 gene expression (RT-qPCR, relative to GAPDH) after ASCT2 gene silencing in SK-HEP-1 cells; type: cell-based, human; conditions: at 24 h; for ASCT2 mRNA relative abundance: liver carcinoma SK-HEP-1 cells, 10 nM siRNA, treatment 6 h, 0.5% Lipofectamine 2000, FIG. 4B
Procedure: as §3, §4
as §2, with “ASCT2” for “LAT1”

[6] = test system: ASCT2; test: ASCT2 activity: [^14C]-L-alanine uptake in fibrosarcoma HT-1080 cells after ASCT2 gene silencing; type: cell-based, human; conditions: fibrosarcoma HT-1080 cells; 5 nM siRNA; treatment 6 h; at 48 h; 0.4% Lipofectamine 2000; FIG. 8B
Procedure: as §1, with “the experiment, Cell culture medium” for “the experiment, cell culture medium”, “Hanks' medium (ChCl 140 mM,” for “Hanks' medium (NaCl 140 mM,”, “initiated by the addition of” for “initiated by addition of”, “0.25 μM [^14C]-L-alanine in the” for “0.25 μM [^14C]-L-leucine in the”, “mM unlabeled L-alanin. During preincubation” for “mM unlabeled L-leucine. During preincubation”
as §2, with “ASCT2” for “LAT1”

[7] = test system: ASCT2 mRNA; test: ASCT2 gene expression (RT-qPCR) after ASCT2 gene silencing in human colon cancer HTC-116 cells; type: cell-based; conditions: treatment 6 h
Procedure: as §3, §4
as §2, with “ASCT2” for “LAT1”

[8] = 5 or 25 nM siRNA, at 24 h or 48 h, 0.5% Lipofectamine 2000, FIGS. 9A and 9C
[9] = 72 h, 0.17% Lipofectamine 2000 or 0.1% Injectin, FIG. 19A
[10] = 5 or 25 nM siRNA, at 24 h or 48 h, 0.5% Lipofectamine 2000, FIGS. 9B and 9C
[11] = 72 h, 0.17% Lipofectamine 2000 or 0.1% Injectin, FIG. 20A

58/162/411 (sense CUUCGCCACCUACCUGCUCAA; antisense UUGAGCAGGUAGGUGGCGAAG; chemistry not given here)
[^14C]-L-leucine (0.25 μM) uptake at initial rate of uptake (1 min) [1]: decreased
LAT1 mRNA relative abundance [2, 8]: decreased
LAT1 mRNA relative abundance [2, 9]: significantly decreased
cell proliferation ([3]; 0.1% Injectin, FIG. 14): decreased
proliferation [3]: significantly decreased

61/165/396 (sense CGUGAACUGCUACAGCGUGAA; antisense UUCACUCUGUAGCAGUUCACG; chemistry not given here)
[^14C]-L-leucine (0.25 μM) uptake at initial rate of uptake (1 min) [1]: decreased
LAT1 mRNA relative abundance [2, 8]: decreased
LAT1 mRNA relative abundance [2, 9]: significantly decreased
cell proliferation ([3]; 0.1% Injectin, FIG. 14): decreased
proliferation [3]: significantly decreased

61/391/392 (chain 1 CGUGAACUGCUACAGCGUGAATT; chain 2 UUCACUCUGUAGCAGUUCACGTT; siRNA; sugars by position and backbone not given here; further chemistry not fully specified)
[^14C]-L-leucine (0.25 μM) uptake at initial rate of uptake (1 min) [1]: decreased
LAT1 mRNA relative abundance [2, 8]: decreased
LAT1 mRNA relative abundance [2, 9]: significantly decreased
Effect of 5-fluoruracil upon proliferation in combination with the siRNA ([3]; 5-FU 10 μM, siRNA 25 nM, 72 h, 0.037% Injectin, FIG. 17A): not
cell proliferation ([3]; 0.1% Injectin, FIG. 14): decreased
proliferation [3]: significantly decreased

225 (AATAATGGCGTGGCCAAGCAC; chemistry not given here) [compound 225]
inhibiting sodium-independent [^14C]-L-leucine transport [4]: particularly effective
ASCT2 mRNA relative abundance [5]: decreased

237 (AATTACGTGGACCGTACGGAG; chemistry not given here) [compound 237]
inhibiting sodium-independent [^14C]-L-leucine transport [4]: particularly effective
ASCT2 mRNA relative abundance [5]: decreased

267 (CCGGTCCTGTACCGTCCTCAA; chemistry not given here) [compound 267]
inhibiting sodium-independent [^14C]-L-leucine transport [4]: particularly effective
ASCT2 mRNA relative abundance [5]: decreased

267/356/402 (sense CCGGUCCUGUACCGUCCUCAA; antisense UUGAGGACGGUACAGGACCGG; chemistry not given here)
[^14C]-L-alanine (0.25 μM) uptake at initial rate of uptake (1 min) [6]: decreased
ASCT2 mRNA relative abundance [7, 10]: decreased
ASCT2 mRNA relative abundance [7, 11]: significantly decreased
cell proliferation ([3]; 0.1% Injectin, FIG. 14): decreased
proliferation [3]: significantly decreased

267/397/398 (sense CCGGUCCUGUACCGUCCUCAATT; antisense UUGAGGACGGUACAGGACCGGTT; siRNA; sugars by position and backbone not given here; further chemistry not fully specified)
[^14C]-L-alanine (0.25 μM) uptake at initial rate of uptake (1 min) [6]: decreased
ASCT2 mRNA relative abundance [7, 10]: decreased
ASCT2 mRNA relative abundance [7, 11]: significantly decreased
Effect on cell proliferation compared with SEQ ID NO: 267/356/402 ([3]; 72 h, 0.1% Injectin, p<0.05): significantly greater
Effect of siRNA-LAT1 SEQ ID NO: 58/387/388 upon proliferation in combination with the siRNA-ASCT2 ([3]; 72 h, siRNA-ASCT2 at non-efficacious conditions (0.037% Injectin), FIG. 18): enhanced
cell proliferation ([3]; 0.1% Injectin, FIG. 14): decreased
cell proliferation ([3]; increasing Injectin (0.037% to 0.15%), FIG. 15): decreased
proliferation [3]: significantly decreased

278 (TGCCACGGTCGCCTCTGAGAA; chemistry not given here) [compound 278]
inhibiting sodium-independent [^14C]-L-leucine transport [4]: particularly effective
Effect on ASCT2 mRNA relative abundance compared with SEQ ID NO: 267 ([5]; SK-HEP-1 cells, 10 nM, p<0.05): significantly greater
ASCT2 mRNA relative abundance [5]: decreased

278/367/408 (sense UGCCACGGUCGCCUCUGAGAA; antisense UUCUCAGAGGCGACCGUGGCA; chemistry not given here)
[^14C]-L-alanine (0.25 μM) uptake at initial rate of uptake (1 min) [6]: decreased
ASCT2 mRNA relative abundance [7, 10]: decreased
ASCT2 mRNA relative abundance [7, 11]: significantly decreased
cell proliferation ([3]; 0.1% Injectin, FIG. 14): decreased
proliferation [3]: significantly decreased
